Reference: article PMC11125018 (Pharmaceuticals, 2024)
pEC50, pIC50: −log10 of the molar value. Several values for one entry are separate records, joined by “and”; a condition that tells them apart may be missing. Identical values can stand only once. Like-named read-outs stand apart in the source and are kept apart here.

Key:
CB1 receptor [1] = target: T1, CB1 receptor (Homo sapiens, UniProt P21554); assay: PathHunter β-arrestin recruitment assay, agonist mode, CB1 expressing CHO-K1 cell line; assay type: cell-based; conditions: for Hill Slope: four-parameter log-logistic fit, three measurements; for Hill Slope / Maximum RE (%): parentheses = SD; for Maximum RE (%): 100% normalized to maximum (±)-CP 55,940 stimulation, 0% to vehicle; for agonist property: tested up to 5 µM; for EC50: EC50 (nM), agonist effect, 90 min incubation, parentheses = SD of three independent measurements; for classification as partial agonist of the CB1 cannabinoid receptor: relative to full agonist CP 55940
T1 construct: host or cells: CHO-K1
T1 sequence (P21554 whole entry): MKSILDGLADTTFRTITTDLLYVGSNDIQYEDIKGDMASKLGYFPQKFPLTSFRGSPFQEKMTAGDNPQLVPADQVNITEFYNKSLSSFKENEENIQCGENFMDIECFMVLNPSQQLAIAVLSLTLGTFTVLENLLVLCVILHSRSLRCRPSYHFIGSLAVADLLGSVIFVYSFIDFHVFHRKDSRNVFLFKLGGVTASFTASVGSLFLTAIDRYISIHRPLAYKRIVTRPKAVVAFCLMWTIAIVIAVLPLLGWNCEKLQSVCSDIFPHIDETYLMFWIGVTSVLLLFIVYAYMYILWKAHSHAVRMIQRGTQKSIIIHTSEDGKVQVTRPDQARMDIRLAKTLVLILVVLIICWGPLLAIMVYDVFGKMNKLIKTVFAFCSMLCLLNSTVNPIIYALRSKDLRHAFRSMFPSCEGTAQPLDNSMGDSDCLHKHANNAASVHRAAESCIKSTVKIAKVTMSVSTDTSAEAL
Method: (§1) For agonist and antagonist assays, PathHunter® CHO-K1 CNR1 (Eurofins DiscoverX, Fremont, CA, USA, Catalog number: 93-0959C2) β-Arrestin cells were expanded from freezer stocks according to standard procedures provided by Eurofins. The cell line manual was followed for cell growth (including cell culture media and supplementation, the handling and preparation of cells, etc.), test procedure, and signal detection. Cells were seeded in a total volume of 20 µL (5000 cells) into white-walled, 384-well microplates and incubated at 37 °C overnight prior to testing. After preparing stock acetonitrile solution at 1 mg/mL concentration of ligand, compound intermediate concentrations were achieved by a 10-point series of 3-fold compound serial dilutions in a compound dilution buffer in a separate dilution plate.
For the agonist assay, the concentration of each dilution was prepared at 5X of the final screening concentration. An amount of 5 µL of samples was added to cells (highest final concentration = 5 µM, maximum acetonitrile = 0.2 v/v%) and incubated at 37 °C for 90 min (5% CO2). To generate the assay signal, 12.5 µL of working detection solution was added to the cells, which were then left to incubate for an hour at room temperature in the dark. The signal detection was carried out using a PerkinElmer Envision instrument to measure chemiluminescence.

CB1 receptor [2] = target: T1, CB1 receptor; assay: cell-based; assay type: cell-based; conditions: for IC50: IC50 (nM); for Hill Slope / Maximum RE (%): antagonist mode, parentheses = SD; for Hill Slope: four-parameter log-logistic fit, three measurements; for Maximum RE (%): 100% normalized to maximum AM-281, 0% to vehicle
Method: as §1
For antagonist determination, cells were pre-incubated with THCV isomers, followed by agonist challenge at the EC80 concentration. Each THCV dilution was prepared at a 10X concentration relative to the intended final concentrations for screening. An amount of 2.5 µL of these samples were introduced into the cells, achieving a maximum final concentration of 5 µM for THCV and ~0.2 v/v% for acetonitrile. The assay plate was incubated at 37 °C for 30 min in an atmosphere containing 5% CO2. […] Cells were incubated for 90 min at 37 °C and 5% CO2. To generate the assay signal, 12.5 µL of working detection solution was added to the cells, which were then left to incubate for an hour at room temperature in the dark. The signal detection was carried out using a PerkinElmer Envision (Waltham, MA, USA) instrument to measure chemiluminescence.

CB1 = conditions: cAMP assay, cited from earlier work; for pEC50: read-out: agonist EC50
CB2 receptor = conditions: in vitro studies; cited from earlier work

| SMILES | Hill Slope (CB1 receptor [1]; agonist mode) | Maximum RE (%) (CB1 receptor [1]; agonist mode) | agonist property (CB1 receptor [1]; agonist mode) | IC50 (CB1 receptor [2]) | Hill Slope (CB1 receptor [2]) | Maximum RE (%) (CB1 receptor [2]) | EC50 (CB1 receptor [1]) | classification as partial agonist of the CB1 cannabinoid receptor (CB1 receptor [1]) | pEC50 (CB1) | CB2 selectivity (CB2 receptor) | other results |
| --- | --- | --- | --- | --- | --- | --- | --- | --- | --- | --- | --- |
| CCCCCCC(C)(C)c1ccc([C@@H]2C[C@H](O)CC[C@H]2CCCO)c(O)c1 [CP 55940, reference compound] | 0.90 (0.10) | 105.50 (3.34) % |  |  |  |  |  |  |  |  |  |
| CCCc1cc(O)c2c(c1)OC(C)(C)[C@@H]1CC=C(C)C[C@@H]21 [∆8-THCV, tetrahydrocannabivarin] |  |  | failed to show any significant agonist property | 120 nM | 1.37 (0.09) | 97.40 (1.16) % |  |  |  |  |  |
| CCCc1cc(O)c2c(c1)OC(C)(C)[C@@H]1CCC(C)=C[C@@H]21 [∆9-THCV, tetrahydrocannabivarin] |  |  | failed to show any significant agonist property | 52.4 nM | 1.38 (0.18) | 96.46 (2.20) % |  |  |  |  | Emax (CB1 receptor [1]; CHO-K1, agonist mode, up to 5 µM, insignificant increase from baseline): 1.19%; fold less potent antagonist than AM-281 (CB1 receptor [2]): ~ 3 ×; fold less potent antagonist than rimonabant (CB1 receptor [2]): ~ 45 × |
| CCCCCc1cc(O)c2c(c1)OC(C)(C)[C@@H]1CC[C@@H](C)C[C@@H]21 [9R-HHC, hexahydrocannabinol] | 0.56 (0.07) | 41.51% and 41.51 (1.70) % |  |  |  |  | 53.4 nM and 53.5 nM | moderate | 8.47 | 1.2 times | fold higher agonist potency than 9S-HHC (CB1): approximately 16 fold |
| CCCCCc1cc(O)c2c(c1)OC(C)(C)[C@@H]1CC[C@H](C)C[C@@H]21 [9S-HHC, hexahydrocannabinol] | 0.95 (0.08) | 20.58% and 20.58 (0.80) % |  |  |  |  | 624 nM | weak | 7.24 | 1.7 times |  |
| Cc1c(C(=O)NN2CCOCC2)nn(-c2ccc(Cl)cc2Cl)c1-c1ccc(I)cc1 [AM-281, reference compound] |  |  |  |  | 0.81 (0.07) | 101.90 (1.63) % |  |  |  |  | pIC50 (CB1 receptor [2]; read-out: IC50): 7.75 |
